Target: T1, Ca^2+-CaM (wild type rat calmodulin) (Rattus norvegicus, UniProt P0DP29)
T1 construct: made in house
Assay: Isothermal titration calorimetry, peptide into Ca2+-CaM
Type: binding
Conditions: peptide titrated into Ca2+-CaM alone; 25 mM Tris-Cl pH 7.5, 75 mM NaCl, 0.5 mM CaCl2; 25°C; one-set-of-sites model; SEM printed separately in figure
Description: All peptides were resuspended in mili-Q deionized water to 1 mM stocks and stored at −80°C in small aliquots.
All ITC recordings were performed on a Microcal ITC200 from Microcal (Northampton, MA) at 25°C. In all experiments the buffer used was 25 mM Tris-Cl pH 7.5, 75 mM NaCl and 0.5 mM CaCl2 and was identical between cell and syringe. […] Data analysis was performed using Origin ITC200 Origin70 module with pre-loaded fitting equations for one- and two-sites models.

With `CC[C@H](C)[C@H](NC(=O)[C@H](C)NC(=O)[C@H](C)NC(=O)[C@H](CCC(N)=O)NC(=O)[C@H](Cc1c[nH]c2ccccc12)NC(=O)[C@@H](N)CO)C(=O)N[C@@H](CC(=O)O)C(=O)N[C@@H](C)C(=O)N[C@@H](C)C(=O)N[C@@H](CCCNC(=N)N)C(=O)N[C@@H](CCC(N)=O)C(=O)N[C@@H](C)C(=O)N[C@@H](CCCCN)C(=O)N[C@@H](CC(C)C)C(=O)N[C@@H](CCSC)C(=O)NCC(=O)N[C@@H](CO)C(=O)O` [NSCaTECav1.2] as the compound, how does the Kd read?
Its Kd is 830 nM.
